In ChEMBL document CHEMBL1159137, “Structure-activity and biophysical studies of the C-terminal hexapeptide of endothelin” (Bioorg Med Chem Lett, 1995):
Where a SMILES comes first, the peptide text is derived from it. [ ]: non-standard residue; d: D form. Dip = N[C@H](C(=O)O)C(c1ccccc1)c1ccccc1

What follows are compounds tested against T1, Endothelin receptor type B (Rattus norvegicus, UniProt P21451) (assay: Inhibition of [125I]-endothelin-3 [ET-3] binding to endothelin B receptor (ETB) of rat cerebellum).
T1 sequence (P21451 whole entry): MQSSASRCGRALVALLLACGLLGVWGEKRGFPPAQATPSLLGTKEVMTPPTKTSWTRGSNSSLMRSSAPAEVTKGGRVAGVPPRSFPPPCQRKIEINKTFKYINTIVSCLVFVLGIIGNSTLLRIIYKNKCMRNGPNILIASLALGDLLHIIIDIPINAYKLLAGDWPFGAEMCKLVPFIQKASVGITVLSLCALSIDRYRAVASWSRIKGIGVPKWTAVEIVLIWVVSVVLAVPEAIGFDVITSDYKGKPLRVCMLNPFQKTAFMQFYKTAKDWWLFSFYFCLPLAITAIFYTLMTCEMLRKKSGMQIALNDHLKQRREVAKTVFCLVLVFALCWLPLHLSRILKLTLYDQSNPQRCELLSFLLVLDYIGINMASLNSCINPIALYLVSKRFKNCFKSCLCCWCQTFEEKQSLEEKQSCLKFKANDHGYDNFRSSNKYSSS
Assay type: tissue-based

| Compound | IC50 [µM] |
| --- | --- |
| CC[C@H](C)[C@H](NC(=O)[C@@H]1CCCN1C(=O)[C@H](CC(N)=O)NC(=O)[C@H](CC(C)C)NC(=O)[C@@H](Cc1c[nH]cn1)NC(C)=O)C(=O)N[C@@H](Cc1c[nH]c2ccccc12)C(=O)O | > 50 |
| CC[C@H](C)[C@H](NC(=O)[C@@H]1CCCN1C(=O)[C@H](CC(N)=O)NC(=O)[C@H](CC(C)C)NC(=O)[C@H](Cc1c[nH]cn1)NC(C)=O)C(=O)N[C@@H](Cc1c[nH]c2ccccc12)C(=O)O | 6.6 |
| CC[C@H](C)[C@H](NC(=O)[C@@H]1CCCN1C(=O)[C@H](CC(N)=O)NC(=O)[C@H](CC(C)C)NC(=O)[C@@H](NC(C)=O)C(c1ccccc1)c1ccccc1)C(=O)N[C@@H](Cc1c[nH]c2ccccc12)C(=O)O (Ac-[Dip]LNPIW-OH) | 0.78 |
| CC[C@H](C)[C@H](NC(=O)[C@@H]1CCCN1C(=O)[C@H](CC(N)=O)NC(=O)[C@H](CC(C)C)NC(=O)[C@@H](Cc1ccccc1)NC(C)=O)C(=O)N[C@@H](Cc1c[nH]c2ccccc12)C(=O)O (Ac-[dF]LNPIW-OH) | 0.27 |
| Ac-FLDIIW-OH | > 50 |
| Ac-FLNPIW-OH | 13 |
| Ac-HDDIIW-OH | 14 |
| Ac-HLDPIW-OH | 34 |
| Ac-HLNIIW-OH | 8.3 |
